{"source": "ChEMBL document CHEMBL4052803", "about": "“Synthesis and anti-tumor evaluation of panaxadiol halogen-derivatives” (Bioorg Med Chem Lett, 2017)", "key": {"SW480": {"system": "SW480", "assay": "Antiproliferative activity against human SW480 cells after 48 hrs by MTT assay", "type": "functional, cell-based", "settings": "SW480, 48 h"}, "HCT-116": {"system": "HCT-116", "assay": "Antiproliferative activity against human HCT116 cells after 48 hrs by MTT assay", "type": "functional, cell-based", "settings": "HCT-116, 48 h"}, "BGC-823": {"system": "BGC-823", "assay": "Antiproliferative activity against human BGC823 cells after 48 hrs by MTT assay", "type": "functional, cell-based", "settings": "BGC-823, 48 h"}, "GES1": {"system": "GES1", "assay": "Antiproliferative activity against human GES-1 cells after 48 hrs by MTT assay", "type": "cell-based", "settings": "GES1, 48 h"}, "[1]": {"assay": "Antiproliferative activity against HHDPC cells after 48 hrs by MTT assay", "type": "cell-based", "settings": "Homo sapiens"}, "H9c2": {"system": "H9c2", "assay": "Antiproliferative activity against rat H9c2 cells after 48 hrs by MTT assay", "type": "cell-based", "settings": "H9c2, 48 h"}}, "data": [{"smiles": "CC1(C)CCC[C@@](C)([C@H]2CC[C@]3(C)[C@@H]2[C@H](O)C[C@@H]2[C@@]4(C)CC[C@H](O)C(C)(C)[C@@H]4CC[C@]23C)O1", "values": [{"measurement": "IC50", "setting": "SW480", "result": 73.4, "unit": "µM"}, {"measurement": "IC50", "setting": "HCT-116", "result": "> 100", "unit": "µM"}, {"measurement": "IC50", "setting": "BGC-823", "result": 80.1, "unit": "µM"}, {"measurement": "IC50", "setting": "GES1", "result": 116, "unit": "µM"}, {"measurement": "IC50", "setting": "[1]", "result": 141, "unit": "µM"}, {"measurement": "IC50", "setting": "H9c2", "result": 214, "unit": "µM"}]}, {"smiles": "CC(C)(CCC[C@@]1(C)O[C@@H]2C[C@@H]3[C@@]4(C)CC[C@H](OC(=O)CCl)C(C)(C)[C@@H]4CC[C@@]3(C)[C@]3(C)CC[C@H]1[C@@H]23)OC(=O)CCl", "values": [{"measurement": "IC50", "setting": "SW480", "result": 30.4, "unit": "µM"}, {"measurement": "IC50", "setting": "HCT-116", "result": 42.3, "unit": "µM"}, {"measurement": "IC50", "setting": "BGC-823", "result": "> 100", "unit": "µM"}, {"measurement": "IC50", "setting": "GES1", "result": 125, "unit": "µM"}, {"measurement": "IC50", "setting": "[1]", "result": 100, "unit": "µM"}, {"measurement": "IC50", "setting": "H9c2", "result": 281, "unit": "µM"}]}, {"smiles": "C/C(=C\\CCC(C)(C)O)[C@H]1CC[C@]2(C)[C@@H]1[C@H](OC(=O)CBr)C[C@@H]1[C@@]3(C)CC[C@H](O)C(C)(C)[C@@H]3CC[C@]12C", "values": [{"measurement": "IC50", "setting": "SW480", "result": 0.118, "unit": "µM"}, {"measurement": "IC50", "setting": "HCT-116", "result": 5.34, "unit": "µM"}, {"measurement": "IC50", "setting": "BGC-823", "result": 0.622, "unit": "µM"}, {"measurement": "IC50", "setting": "GES1", "result": 26.1, "unit": "µM"}, {"measurement": "IC50", "setting": "[1]", "result": 36.4, "unit": "µM"}, {"measurement": "IC50", "setting": "H9c2", "result": 48.8, "unit": "µM"}]}, {"smiles": "CC(C)=CC/C=C(\\C)[C@H]1CC[C@]2(C)C1=CC[C@@H]1[C@@]3(C)CC[C@H](OC(=O)CBr)C(C)(C)[C@@H]3CC[C@]12C", "values": [{"measurement": "IC50", "setting": "SW480", "result": 39.4, "unit": "µM"}, {"measurement": "IC50", "setting": "HCT-116", "result": 3.59, "unit": "µM"}, {"measurement": "IC50", "setting": "GES1", "result": 77.6, "unit": "µM"}, {"measurement": "IC50", "setting": "[1]", "result": 90.6, "unit": "µM"}, {"measurement": "IC50", "setting": "H9c2", "result": 131, "unit": "µM"}]}, {"smiles": "CC(C)=CC/C=C(\\C)[C@H]1CC[C@]2(C)[C@@H]1[C@H](Br)C[C@@H]1[C@@]3(C)CC[C@H](OC(=O)CBr)C(C)(C)[C@@H]3CC[C@]12C", "values": [{"measurement": "IC50", "setting": "SW480", "result": 18, "unit": "µM"}, {"measurement": "IC50", "setting": "HCT-116", "result": 58.1, "unit": "µM"}, {"measurement": "IC50", "setting": "BGC-823", "result": 95, "unit": "µM"}, {"measurement": "IC50", "setting": "GES1", "result": 121, "unit": "µM"}, {"measurement": "IC50", "setting": "[1]", "result": 157, "unit": "µM"}, {"measurement": "IC50", "setting": "H9c2", "result": 250, "unit": "µM"}]}, {"smiles": "CC1(C)CCC[C@](C)([C@H]2CC[C@]3(C)[C@@H]2[C@H](OC(=O)CBr)C[C@@H]2[C@@]4(C)CC[C@H](OC(=O)CBr)C(C)(C)[C@@H]4CC[C@]23C)O1", "values": [{"measurement": "IC50", "setting": "SW480", "result": 15.2, "unit": "µM"}, {"measurement": "IC50", "setting": "HCT-116", "result": 3.86, "unit": "µM"}, {"measurement": "IC50", "setting": "BGC-823", "result": 15.6, "unit": "µM"}, {"measurement": "IC50", "setting": "GES1", "result": 99.4, "unit": "µM"}, {"measurement": "IC50", "setting": "[1]", "result": 140, "unit": "µM"}, {"measurement": "IC50", "setting": "H9c2", "result": 158, "unit": "µM"}]}, {"smiles": "CC(C)=CC/C=C(\\C)[C@H]1CC[C@]2(C)[C@@H]1[C@H](OC(=O)CCl)C[C@@H]1[C@@]3(C)CC[C@H](OC(=O)CCl)C(C)(C)[C@@H]3CC[C@]12C", "values": [{"measurement": "IC50", "setting": "SW480", "result": 13.7, "unit": "µM"}, {"measurement": "IC50", "setting": "HCT-116", "result": 12.6, "unit": "µM"}, {"measurement": "IC50", "setting": "BGC-823", "result": "> 100", "unit": "µM"}, {"measurement": "IC50", "setting": "GES1", "result": 100, "unit": "µM"}, {"measurement": "IC50", "setting": "[1]", "result": 89.5, "unit": "µM"}, {"measurement": "IC50", "setting": "H9c2", "result": 180, "unit": "µM"}]}, {"smiles": "CC1(C)CCC[C@](C)([C@H]2CC[C@]3(C)[C@@H]2[C@H](OC(=O)CCl)C[C@@H]2[C@@]4(C)CC[C@H](OC(=O)CCl)C(C)(C)[C@@H]4CC[C@]23C)O1", "values": [{"measurement": "IC50", "setting": "SW480", "result": "> 100", "unit": "µM"}, {"measurement": "IC50", "setting": "HCT-116", "result": "> 100", "unit": "µM"}, {"measurement": "IC50", "setting": "BGC-823", "result": "> 100", "unit": "µM"}, {"measurement": "IC50", "setting": "GES1", "result": 180, "unit": "µM"}, {"measurement": "IC50", "setting": "[1]", "result": 226, "unit": "µM"}, {"measurement": "IC50", "setting": "H9c2", "result": "> 500", "unit": "µM"}]}, {"smiles": "C/C(=C\\CCC(C)(C)O)[C@H]1CC[C@]2(C)[C@@H]1[C@H](OC(=O)CBr)C[C@@H]1[C@@]3(C)CC[C@H](OC(=O)CBr)C(C)(C)[C@@H]3CC[C@]12C", "values": [{"measurement": "IC50", "setting": "SW480", "result": 1.22, "unit": "µM"}, {"measurement": "IC50", "setting": "HCT-116", "result": 50.9, "unit": "µM"}, {"measurement": "IC50", "setting": "BGC-823", "result": 1.08, "unit": "µM"}, {"measurement": "IC50", "setting": "GES1", "result": 35.1, "unit": "µM"}, {"measurement": "IC50", "setting": "[1]", "result": 42.1, "unit": "µM"}, {"measurement": "IC50", "setting": "H9c2", "result": 36.6, "unit": "µM"}]}, {"smiles": "C/C(=C\\CCC(C)(C)OC(=O)CBr)[C@H]1CC[C@]2(C)C1=CC[C@@H]1[C@@]3(C)CC[C@H](OC(=O)CBr)C(C)(C)[C@@H]3CC[C@]12C", "values": [{"measurement": "IC50", "setting": "SW480", "result": 31.4, "unit": "µM"}, {"measurement": "IC50", "setting": "HCT-116", "result": 7.14, "unit": "µM"}, {"measurement": "IC50", "setting": "BGC-823", "result": 82.1, "unit": "µM"}, {"measurement": "IC50", "setting": "GES1", "result": 142, "unit": "µM"}, {"measurement": "IC50", "setting": "[1]", "result": 200, "unit": "µM"}, {"measurement": "IC50", "setting": "H9c2", "result": 161, "unit": "µM"}]}, {"smiles": "C/C(=C\\CCC(C)(C)O)[C@H]1CC[C@]2(C)[C@@H]1[C@H](OC(=O)CCl)C[C@@H]1[C@@]3(C)CC[C@H](OC(=O)CCl)C(C)(C)[C@@H]3CC[C@]12C", "values": [{"measurement": "IC50", "setting": "SW480", "result": 5.49, "unit": "µM"}, {"measurement": "IC50", "setting": "HCT-116", "result": 8.33, "unit": "µM"}, {"measurement": "IC50", "setting": "BGC-823", "result": 4.28, "unit": "µM"}, {"measurement": "IC50", "setting": "GES1", "result": 110, "unit": "µM"}, {"measurement": "IC50", "setting": "[1]", "result": 61.9, "unit": "µM"}, {"measurement": "IC50", "setting": "H9c2", "result": 86.2, "unit": "µM"}]}, {"smiles": "CC1(C)CCC[C@@](C)([C@H]2CC[C@]3(C)[C@@H]2[C@H](O)C[C@@H]2[C@@]4(C)CC[C@H](OC(=O)CBr)C(C)(C)[C@@H]4CC[C@]23C)O1", "values": [{"measurement": "IC50", "setting": "SW480", "result": 14.2, "unit": "µM"}, {"measurement": "IC50", "setting": "BGC-823", "result": 14.7, "unit": "µM"}, {"measurement": "IC50", "setting": "GES1", "result": 115, "unit": "µM"}, {"measurement": "IC50", "setting": "[1]", "result": 118, "unit": "µM"}, {"measurement": "IC50", "setting": "H9c2", "result": 120, "unit": "µM"}]}, {"smiles": "CC1(C)CCC[C@@](C)([C@H]2CC[C@]3(C)[C@@H]2[C@H](O)C[C@@H]2[C@@]4(C)CC[C@H](OC(=O)CCl)C(C)(C)[C@@H]4CC[C@]23C)O1", "values": [{"measurement": "IC50", "setting": "SW480", "result": 15.8, "unit": "µM"}, {"measurement": "IC50", "setting": "HCT-116", "result": 42.3, "unit": "µM"}, {"measurement": "IC50", "setting": "BGC-823", "result": 17.1, "unit": "µM"}, {"measurement": "IC50", "setting": "GES1", "result": 107, "unit": "µM"}, {"measurement": "IC50", "setting": "[1]", "result": 120, "unit": "µM"}, {"measurement": "IC50", "setting": "H9c2", "result": 121, "unit": "µM"}]}]}
